Measured values as given in publication PMC3676450 (Journal of medicinal chemistry, 2013).

How the values were obtained:
hM1 mAcChR = target: T1, hM1 mAcChR (Homo sapiens, UniProt P11229); test: [3H]N-methylscopolamine; assay type: binding
T1 sequence (P11229 1-460): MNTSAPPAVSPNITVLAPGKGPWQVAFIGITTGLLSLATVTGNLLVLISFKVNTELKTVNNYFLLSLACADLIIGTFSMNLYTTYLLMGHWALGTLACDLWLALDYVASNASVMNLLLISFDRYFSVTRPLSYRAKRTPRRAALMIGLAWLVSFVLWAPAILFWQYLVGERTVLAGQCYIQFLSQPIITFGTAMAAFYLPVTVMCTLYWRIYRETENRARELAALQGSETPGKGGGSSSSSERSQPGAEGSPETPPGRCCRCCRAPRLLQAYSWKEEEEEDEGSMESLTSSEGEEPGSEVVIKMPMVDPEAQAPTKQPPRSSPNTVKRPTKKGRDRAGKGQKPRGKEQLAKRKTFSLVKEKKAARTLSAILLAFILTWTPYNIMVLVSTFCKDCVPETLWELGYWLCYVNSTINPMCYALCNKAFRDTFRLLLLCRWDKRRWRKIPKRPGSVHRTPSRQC

hM5 mAcChR = target: T2, hM5 mAcChR (Homo sapiens, UniProt P08912); test: [3H]NMS binding to membranes from CHO-K1 cells expressing hM5
T2 sequence (P08912 1-532): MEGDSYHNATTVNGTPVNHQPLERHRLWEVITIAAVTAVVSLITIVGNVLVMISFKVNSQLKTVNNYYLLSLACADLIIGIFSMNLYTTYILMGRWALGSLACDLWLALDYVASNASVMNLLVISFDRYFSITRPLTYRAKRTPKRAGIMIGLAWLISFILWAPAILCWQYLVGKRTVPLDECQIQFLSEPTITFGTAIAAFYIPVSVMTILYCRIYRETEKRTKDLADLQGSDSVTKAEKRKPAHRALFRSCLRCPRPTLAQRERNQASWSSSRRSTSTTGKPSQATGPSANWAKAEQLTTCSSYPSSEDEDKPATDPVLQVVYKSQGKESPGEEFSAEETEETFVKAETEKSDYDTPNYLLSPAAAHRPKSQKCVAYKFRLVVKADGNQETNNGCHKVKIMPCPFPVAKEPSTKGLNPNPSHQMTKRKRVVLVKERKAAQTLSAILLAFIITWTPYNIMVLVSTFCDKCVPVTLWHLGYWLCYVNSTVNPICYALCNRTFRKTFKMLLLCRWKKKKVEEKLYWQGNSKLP

Compound	binding affinity at M1 receptor (in words) (hM1 mAcChR)	binding affinity at M5 receptor (in words) (hM5 mAcChR)	M1/M5 (hM5 mAcChR)	M2/M5 (hM5 mAcChR)	M3/M5 (hM5 mAcChR)	M4/M5 (hM5 mAcChR)	also measured
COc1ccc(CCOC(=O)C2=C(c3ccccc3)CCN(Cc3ccc(OC)cc3)C2)cc1 [Compound 40]	eliminated affinity	eliminated affinity	–	–	–	–	–
CN1CC=C(c2ccccc2C(=O)OCCc2ccc3c(c2)CCO3)CC1 [Compound 89]	complete loss of binding affinity	complete loss of binding affinity	–	–	–	–	–
CCN1CCC(c2ccccc2)=C(C(=O)OCCc2cccc(OC)c2)C1 [Compound 18]	–	–	–	–	–	–	increase in binding affinity at M5 relative to compound 8 (hM5 mAcChR): 3 fold; increase in binding affinity at M5 relative to compound 17 (hM5 mAcChR): 8 fold
CCN1CCC(c2ccccc2)=C(C(=O)OCCc2ccc3c(c2)CCO3)C1 [Compound 28]	–	–	1,390 (6.0)	>100,000 (>435)	31,100 (135)	10,500 (46)	–
CN1CCC(c2ccccc2)=C(C(=O)OCCc2cccc3ccccc23)C1 [Compound 57]	–	–	24,400 (4.8)	>100,000 (>20)	>100,000 (>20)	>100,000 (>20)	–
CCCCN1CCC(c2ccccc2)=C(C(=O)OCCc2ccc(OC)cc2)C1 [Compound 44]	eliminated affinity	eliminated affinity	–	–	–	–	–
COc1ccc(CCOC(=O)C2=C(c3ccccc3)CCN(C)C2)cc1 [Compound 42]	–	–	–	–	–	–	increase in binding affinity at M1 relative to compound 8 (hM1 mAcChR): 8 fold; increase in binding affinity at M5 relative to compound 8 (hM5 mAcChR): 14 fold
CCCN1CCC(c2ccccc2)=C(C(=O)OCCc2ccc(OC)cc2)C1 [Compound 43]	eliminated affinity	eliminated affinity	–	–	–	–	–
CN1CCC(c2ccccc2)=C(C(=O)OCCc2ccc3c(c2)CCO3)C1 [Compound 45]	–	–	290 (4.8)	1,170 (20)	2,840 (47)	1,890 (32)	–
CN1CCC(c2ccccc2F)=C(C(=O)OCCc2ccc3c(c2)CCO3)C1 [Compound 63]	–	–	5,270 (7.1)	540 (0.7)	4,890 (6.6)	5,740 (7.8)	–
COc1ccc(CCOC(=O)C2=C(c3cccc(F)c3)CCN(C)C2)cc1OC [Compound 66]	–	–	–	>100,000 (>30)	>100,000 (>30)	>100,000 (>30)	–
CCN1CCC(c2ccccc2)=C(C(=O)OCCc2ccc(S(C)(=O)=O)cc2)C1 [Compound 27]	little affinity	little affinity	–	–	–	–	–
